Reference: US11407725B2 (The Board of Trustees of the University of Illinois, priority 2018, dated 2022)
Values joined by “and” are separate entries in the source; they are usually repeats but may differ in a detail not shown here. Equal values may be shown once.

Legend:
[1] = tested on: MDA-MB-231 mammospheres; assay: Mammosphere culture and imaging; format: cell-based; conditions: 2 μM dye
Method: Mammosphere formation from MDA-MB-231 breast cancer cells was performed as described previously with some modifications. Cells were resuspended and diluted to a density of 2000 cells/mL in DMEM/F12 (Sigma-Aldrich) supplemented with 2% B27 supplement (Thermo Fisher), 40 ng/mL rhFGF-2 (Miltenyi Biotec), and 20 ng/mL rhEGF (Gibco®). They were plated in ultra-low attachment 6-well plates (Corning) and incubated at 37° C. and 5% CO2 for 5 days or until most mammospheres were between […]. At this point, the mammospheres were transferred to a 4-well chamber slide coated with Poly-L-lysine as described previously. The mammospheres were then either immediately imaged with AlDeSense or Ctrl-AlDeSense, or the media was exchanged with full DMEM media supplement with 10% FBS and non-essential amino acids to allow differentiation over 36 hours.
At various time points, the mammospheres were stained with 2 μM AlDeSense or Ctrl-AlDeSense as described above. Staining continued for 1 h at room temperature before imaging with a wide field fluorescence microscope (Zeiss Axiovert 200M). A GFP filter set was used to excite the fluorophores. Exposure times were set equally for all images taken within a data set and configured to give low signal in Ctrl-AlDeSense stained tumorspheres. Only mammospheres greater than 50 μm in diameter were considered in the analysis.

[2] = target: T1, ALDH1A1 (Homo sapiens, UniProt P00352); assay: Fluorescence turn-on of AlDeSense with recombinant ALDH1A1; format: biochemical; conditions: fluorescent enhancement when treated with ALDH1A1; 1 μM probe
T1 construct: made in house
T1 sequence (P00352 1-501): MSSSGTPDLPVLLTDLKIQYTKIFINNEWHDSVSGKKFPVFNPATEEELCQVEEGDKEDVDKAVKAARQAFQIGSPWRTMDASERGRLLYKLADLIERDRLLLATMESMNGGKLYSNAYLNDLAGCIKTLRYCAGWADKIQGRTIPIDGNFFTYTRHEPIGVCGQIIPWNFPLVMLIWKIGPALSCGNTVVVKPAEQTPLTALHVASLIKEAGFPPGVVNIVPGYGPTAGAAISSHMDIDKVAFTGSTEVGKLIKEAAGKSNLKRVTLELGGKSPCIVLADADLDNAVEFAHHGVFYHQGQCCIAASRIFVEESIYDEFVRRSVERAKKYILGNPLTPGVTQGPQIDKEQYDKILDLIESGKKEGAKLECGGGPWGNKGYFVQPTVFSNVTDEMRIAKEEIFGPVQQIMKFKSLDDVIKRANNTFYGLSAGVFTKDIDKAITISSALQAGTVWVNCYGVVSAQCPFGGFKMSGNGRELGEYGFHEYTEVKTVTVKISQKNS
Method: Activation of AlDeSense was assessed using 20 units of each ALDH isoform. Activity was determined by activity measurements using each isoform's preferred substrate (1 unit=1 μmol substrate turned over/mol enzyme/min). Further details are in the supplementary information. All enzymatic reactions were performed in 50 mM triethanolamine buffer (pH 7.4, Thermo Fisher) with 2.5 mM NAD+(Alfa Aesar) and 5% v/v DMSO (Thermo Fisher) in a 1 mL quartz cuvette at room temperature.
AlDeSense activation was determined using fluorescence. Immediately before measurement, AlDeSense (1 μM) was added to a quartz cuvette. After vigorous mixing, the reaction was monitored at room temperature for 15 min. Fluorescence spectra were acquired according to following parameters: λex=498 nm, and emission range=505-580 nm. All scans were normalized to the signal from AlDeSense in 50 mM TEA and 2.5 mM NAD+(without enzyme). Endpoint measurements at 15 min were performed in triplicate and reported as the averages±standard deviation.

[3] = tested on: K562 cells; assay: Flow cytometry of K562 cells stained with AlDeSense; format: cell-based, human
Method: K562 cells were resuspended in PBS to a final concentration of 100,000 cells/mL. The suspension was divided into 0.5 mL aliquots and the cells were collected by centrifugation at 1000 rpm for 5 min at 4° C. Each sample was then resuspended in premixed AlDeSense AM or Ctrl-AlDeSense AM solutions (1.5 μM, PBS). For each dye, triplicate samples were prepared. Cells were incubated with dye for 30 minutes at room temperature with rocking to prevent cell clumping and ensure even dye distribution. At the end of the incubation period, cells were again collected by centrifugation at 1000 rpm for 5 min at 4° C. The dye solution was removed by aspiration, and each sample of cells were resuspended in 0.5 mL of PBS. The samples were immediately placed on ice until analysis. The samples were analyzed by a BD LSR II Flow Cytometry Analyzer using a 488 nm laser and a FITC filter. Data analyzed on FCS Express 6.04.
The day before imaging, Nunc™ Lab-Tek™ Chamber Slide™ systems (Thermo Fisher) were coated with poly-L-lysine (Trevigen) according to manufacturer's instructions. Cells were added to the chamber slides at a concentration of 400,000 cells/mL, yielding 90% confluent cells after 24 h. […] Images were analyzed using ImageJ software (Version 1.5 in).

[4] = Log D7.4; format: physicochemical; conditions: pH 7.4
[5] = pKa determination (pH profile of fluorescence); conditions: 40 mM Britton-Robinson buffer
Method: The fluorescence of 1 μM of each compound was measured in 40 mM Britton-Robinson buffer at pH 2-9 in 0.5 pH intervals. Each measurement was performed in triplicate. […] Error bars are ±standard deviation (SD).

[6] = tested on: A549 cells; assay: Flow cytometry of A549 cells with red-AlDeSense; format: cell-based
Method: For all cell lines, 200,000 cells in a single-cell suspension were transferred into 1.5 mL Eppendorf tubes. Cells were pelleted by centrifugation at 400 g for 5 minutes at room temperature. After removing the supernatant by aspiration, cells were resuspended in 300 μL premixed PBS supplemented with verapamil, probenecid, and novobiocin. […] Samples were immediately stored on ice. Cells were stained with red-AlDeSense or Ctrl-red-AlDeSense (100 μL of 4 μM dye solution; dyes were normalized by fluorescence spectroscopy). Samples were analyzed on a BD LSR II Flow Cytometry Analyzer using a 488 nm laser and a 550 LP and 610/30 filter set. Samples were analyzed every 5 minutes for 15 minutes, with the samples being placed back on ice between data collection. Data were analyzed on FCS Express 6.04.

Structure (SMILES) | brightness of mammospheres versus Ctrl-AlDeSense [1] [fold] | Turn-on (fold) [2] | brightness of stained K562 cells versus AlDeSense with inhibitor or Ctrl-AlDeSense [3] | logD [4] | pKa [5] | extent of red-AlDeSense activation with DEAB ([6]; A549 cells, plus 20 μM DEAB) [%] | A549 cells displaying high ALDH1A1 activity ([6]; flow cytometry, 1 μM dye) [%]
Cc1cc(C=O)ccc1-c1c2cc(F)c(=O)cc-2oc2cc(O)c(F)cc12 [AlDeSense] | 3 | 20 fold and 20.0 fold | significantly brighter | 0.88 | 4.81 |  | 
Cc1cc(C=O)c(F)c(F)c1C1=C2C=CC(=O)C=C2[Si](C)(C)c2cc(O)ccc21 |  |  |  |  |  | 67.8±3.4 | 78.1±0.3
